Data published in US20060084657A1, “Piperazine derivative” (priority 2001, published 2006).

Biological target: T1, human MC4 receptor (Homo sapiens, UniProt P32245)
T1 construct: purchased BioLinks K.K; host or cells: HEK-293 cell membranes
Assay: Test for binding to MC4 receptor
Settings: HEK-293 cell membranes expressing the human MC4 receptor; [125I]Nle4-D-Phe7-α-MSH 0.2 nM; 25° C. for 120 minutes
Procedure: The test for binding to MC4 receptor was carried out according to the method as described in Pharmacology & Toxicology, 79, 161-165, 1996. HEK-293 cell membranes expressing the human MC4 receptor were purchased from BioLinks K.K. The cell membranes were homogenized in a 50 mM Tris-hydrochloric buffer (pH 7.4) containing 2 mM ethylenediaminetetraacetic acid, 10 mM calcium chloride and 100 μM phenymethylsulfonyl fluoride. The homogenate was centrifuged at 48,000×g at 4° C. for 20 minutes. The precipitate obtained by centrifugation was re-homogenized in the same buffer, and then the homogenate was centrifuged at 48,000×g at 4° C. for 20 minutes. This manipulation was repeated twice. The precipitates were suspended in a 50 mM Tris-hydrochloric acid buffer (pH 7.4) containing 2 mM ethylenediaminetetraacetic acid, 10 mM calcium chloride, 100 μM phenymethylsulfonyl fluoride and 0.1% bovine serum albumin so as to provide a protein concentration of 100 μg/ml. The suspension was used for the binding test as a crude membrane specimen. The crude membrane specimen (0.25 ml, 25 μg protein) was allowed to react with [^125I]Nle^4-D-Phe^7-α-MSH (final concentration of 0.2 nM) at 25° C. for 120 minutes. […] Radioactivity on the filter papers was measured using a γ-counter. […] IC50 value was calculated from inhibition curve at concentrations of from 10^−8 to 10^−5.

T1 sequence (P32245 whole entry): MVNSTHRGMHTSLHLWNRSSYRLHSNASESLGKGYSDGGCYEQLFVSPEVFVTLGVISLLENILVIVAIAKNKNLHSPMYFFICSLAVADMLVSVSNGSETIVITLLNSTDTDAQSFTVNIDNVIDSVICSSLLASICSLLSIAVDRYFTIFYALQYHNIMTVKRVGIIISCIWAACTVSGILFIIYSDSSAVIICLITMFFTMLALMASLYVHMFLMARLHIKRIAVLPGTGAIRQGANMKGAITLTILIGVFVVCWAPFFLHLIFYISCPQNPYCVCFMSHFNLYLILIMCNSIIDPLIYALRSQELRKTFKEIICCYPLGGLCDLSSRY

- IC50: 162 nM
SMILES: CC(C)N1CCN(C(CN2CCN(CCCc3sc(-c4ccccc4)nc3-c3ccccc3)CC2)c2ccc(F)cc2)CC1 (stereo not shown) [Compound 86]
